Experiment [1] has as its system Human immunodeficiency virus 1. Briefly: Antiviral activity against HIV1 LAI in MT2 cells. Format: functional, organism-based. The conditions noted are these: Human immunodeficiency virus 1, LAI.
Experiment [2] concerns the target Protease (Human immunodeficiency virus 1) (UniProt Q9YQ12). Briefly: Inhibition of HIV1 protease dimerization in COS7 cells at 1 uM.
The target in the next experiment is Protease (Human immunodeficiency virus 1, UniProt Q9YQ12). Briefly: Inhibition of HIV1 protease.

Each structure is given as a SMILES string. Calls of active or inactive are those of the source. The calls are words filed in the database; no cut-off is given here.

Protease, sequence (Q9YQ12 whole entry): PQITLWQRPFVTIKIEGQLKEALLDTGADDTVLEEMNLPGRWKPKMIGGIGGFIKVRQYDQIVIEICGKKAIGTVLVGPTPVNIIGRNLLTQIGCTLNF
Protease (Human immunodeficiency virus 1), sequence (Q9YQ12 as listed by the source): as the sequence (Q9YQ12 whole entry) above

Take `CCC[C@@]1(CCc2ccccc2)CC(O)=C([C@H](CC)c2cccc(NS(=O)(=O)c3ccc(C(F)(F)F)cn3)c2)C(=O)O1`: the midpoint of inhibition in experiment [1], the IC50, lay at 100 nM.

For `CC(C)CN(C[C@@H](O)[C@H](Cc1ccccc1)NC(=O)O[C@H]1CO[C@H]2OCC[C@H]21)S(=O)(=O)c1ccc2c(c1)OCO2`, in experiment [2], the outcome was Active. Further, the Ki (as a rule, the equilibrium dissociation constant of an inhibitor or competing ligand from its target) on Protease was 0.014 nM. Besides, the midpoint of inhibition in experiment [1], the IC50, lay at 0.4 nM.

Regarding `Cc1nc(COc2ccc(C[C@H](NC(=O)O[C@H]3CO[C@H]4OCC[C@H]43)[C@H](O)CN(CC(C)C)S(=O)(=O)c3ccc4c(c3)OCO4)cc2)cs1` [BRECANAVIR], in experiment [2], the result was Active. This compound returned a Ki on Protease of 0.0068 nM. Moreover, in experiment [1], 0.2 nM corresponded to half-maximal inhibition (IC50).

On to `CC(C)CN(C[C@@H](O)[C@H](CSc1ccccc1)NC(=O)O[C@@H]1C[C@@H]2CCO[C@@H]2C1)S(=O)(=O)c1ccc(CO)cc1`, for which the outcome in experiment [2] was Active. Moreover, the Ki on Protease turned out to be 0.029 nM. Besides, the IC50 (in general, the concentration at which inhibition is half-maximal) in experiment [1] worked out at 5 nM.

`COc1ccc(S(=O)(=O)N(CC(C)C)C[C@@H](O)[C@H](Cc2ccccc2)NC(=O)O[C@H]2CO[C@H]3OCC[C@H]32)cc1`: the result in experiment [2] was Active. The same compound yielded a half-inhibitory concentration (IC50) in experiment [1] of 0.3 nM.

On to `CC(C)CN(C[C@@H](O)[C@H](Cc1ccccc1)NC(=O)O[C@H]1CO[C@H]2OCC[C@H]21)S(=O)(=O)c1ccc(N)cc1`, for which, in experiment [2], the result was Active. For the same compound, in experiment [1], the IC50 stood at 3.4 nM.

Regarding `CC(C)CN(C[C@@H](O)[C@H](Cc1ccccc1)NC(=O)O[C@@H]1C[C@@H]2CCO[C@@H]2C1)S(=O)(=O)c1ccc(CO)cc1`, the outcome in experiment [2] was Active. This compound displayed a Ki on Protease of 0.0035 nM. Besides, the IC50 in experiment [1] is 1.4 nM.

For `COc1ccc(S(=O)(=O)N(CC(C)C)C[C@@H](O)[C@H](Cc2ccccc2)NC(=O)C[C@H]2CO[C@H]3OCC[C@@H]23)cc1`, in experiment [2], the result was Active. Besides, inhibition in experiment [1] was half-maximal at 480 nM (IC50).

(Values after ChEMBL document CHEMBL1147040, “Potent inhibition of HIV-1 replication by novel non-peptidyl small molecule inhibitors of protease dimerization” (J Biol Chem, 2007).)
